Among the data in ChEMBL document CHEMBL1156687, “Design and microwave-assisted synthesis of 5-trifluoromethyl-4,5-dihydro-1H-pyrazoles: novel agents with analgesic and anti-inflammatory properties” (Eur J Med Chem, 2008) are Activity values, retold here.

SMILES strings stand for the structures. Activity calls are given as the source filed them. No cut-off for these calls is given here.

Data set [1] deals with Mus musculus. Kind of data set: Analgesic activity against formalin-induced inflammatory pain in albino mouse assessed as time spent on paw licking at 1000 umol/kg, sc administered 20 mins before formalin challenge assessed for 30 mins at 5 mins intervals. The data set is classed as functional.
Data set [2] concerns Mus musculus. Kind of data set: Analgesic activity against formalin-induced neurogenic pain in albino mouse assessed as time spent on paw licking at 1000 umol/kg, sc administered 20 mins before formalin challenge assessed for 30 mins at 5 mins intervals. Type of data set: functional.
Data set [3] relates to Mus musculus. Description: Analgesic activity in albino mouse assessed as response latency at 1000 ug/ml, sc after 30 mins by hot plate method. The data set is classed as functional, organism-based. In general terms: Thermal pain tests record how soon the animal reacts.
In data set [4] the test system is Mus musculus. Kind of data set: Analgesic activity against formalin-induced inflammatory pain in albino mouse assessed as time spent on paw licking at 1500 umol/kg, sc administered 20 mins before formalin challenge assessed for 30 mins at 5 mins intervals. The data set is classed as functional, organism-based.
For data set [5], the system named is Mus musculus. Description: Analgesic activity in albino mouse assessed as falling latency at 1000 ug/ml, sc after 30 mins by rotarod test. Type of data set: functional. (In general: The rotarod test checks motor coordination on a turning rod.)
Data set [6] deals with Mus musculus. Description: Analgesic activity in albino mouse assessed as inhibition of carrageenan-induced paw edema at 1000 ug/ml. The data set is classed as functional. The arrangement: scale not given: the % may be the effect or the level left. A general note: The carrageenan paw model is a standard test of acute inflammation.
Data set [7] concerns Mus musculus. Kind of data set: Analgesic activity against formalin-induced neurogenic pain in albino mouse assessed as time spent on paw licking at 1500 umol/kg, sc administered 20 mins before formalin challenge assessed for 30 mins at 5 mins intervals. The data set is classed as functional, organism-based.
Data set [8] deals with Mus musculus. Kind of data set: Analgesic activity in albino mouse assessed as number of falls from the rod at 1000 ug/ml, sc after 4 mins by rotarod test. Type of data set: functional.
Data set [9] deals with Mus musculus. Kind of data set: Increase in locomotor activity in albino mouse assessed as number of crossing at 1000 umol/kg. The data set is classed as functional.
The species named for data set [10] is Mus musculus. Description: Toxicity against in albino mouse after 72 hrs. Type of data set: organism-based. The settings on record: in vivo.
In data set [11] the test system is Mus musculus. Description: Analgesic activity against formalin-induced neurogenic pain in albino mouse assessed as time spent on paw licking at 750 umol/kg, sc administered 20 mins before formalin challenge assessed for 30 mins at 5 mins intervals. Type of data set: functional.
For data set [12], the system named is Mus musculus. Description: Analgesic activity against formalin-induced inflammatory pain in albino mouse assessed as time spent on paw licking at 750 umol/kg, sc administered 20 mins before formalin challenge assessed for 30 mins at 5 mins intervals. The data set is classed as functional.
The subject of data set [13] is Mus musculus. Kind of data set: Analgesic activity against formalin-induced inflammatory pain in albino mouse assessed as time spent on paw licking at 25 umol/kg, sc administered 20 mins before formalin challenge assessed for 30 mins at 5 mins intervals. The data set is classed as functional, organism-based.
Data set [14] relates to Mus musculus. Description: Analgesic activity against formalin-induced inflammatory pain in albino mouse assessed as time spent on paw licking at 75 umol/kg, sc administered 20 mins before formalin challenge assessed for 30 mins at 5 mins intervals. Type of data set: functional, organism-based.
The test system of data set [15] is Mus musculus. Description: Analgesic activity against formalin-induced inflammatory pain in albino mouse assessed as time spent on paw licking at 250 umol/kg, sc administered 20 mins before formalin challenge assessed for 30 mins at 5 mins intervals. Type of data set: functional, organism-based.
For data set [16], the system named is Mus musculus. Description: Analgesic activity in albino mouse assessed as response latency at 1500 ug/ml, sc after 30 mins by hot plate method. The data set is classed as functional, organism-based.
Data set [17] has as its system Mus musculus. Kind of data set: Increase in locomotor activity in albino mouse assessed as number of crossing at 1500 umol/kg. Type of data set: functional.

In the case of `NC(=O)N1N=CCC1(O)C(F)(F)F` (centres undefined), the Activity in data set [1] is recorded as 70.8%; in data set [2], 32.8%.

Regarding `NC(=O)N1N=C(c2ccc(Br)cc2)CC1(O)C(F)(F)F` (centres undefined), the Activity came out at 47.3% in [1] and 33.3% in data set [2].

On to `CCC1=NN(C(N)=O)C(O)(C(F)(F)F)C1` (centres undefined), for which the outcome in data set [3] was inactive. For the same compound, the outcome in data set [4] and in data set [7] was Active. The Activity in data set [5] is 112.5 s; in [6] it was 43.7%; in data set [8] it was 3.7; in [1], 98.2%; in data set [2], 87.9%; in [9] it was 165.6.

`CC1C=NN(C(N)=O)C1(O)C(F)(F)F` (centres undefined): the outcome in data set [3] was inactive. Besides, the result in [4] and in data set [7] was Active. The Activity result in data set [10] is “Non-toxic”; in [5] it was 62.6 s; in data set [6] it was 34.6%; in data set [8], 5.1; in data set [1], 97.2%; in data set [2] it was 74.6%. Besides, the Activity in [9] is 167.3.

In the case of `NC(=O)N1N=C(c2ccccc2)CC1(O)C(F)(F)F` (centres undefined), the Activity in data set [1] worked out at 8.2%; in data set [2], 10%.

Regarding `CC1=NN(C(N)=O)C(O)(C(F)(F)F)C1` (centres undefined), the figures for the Activity in data set [1] and in data set [2] were 55.5% and 23.3%, respectively.

`CC(C)(C)C1=NN(C(N)=O)C(O)(C(F)(F)F)C1` (centres undefined): the Activity in data set [1] is 72.9%; in data set [2], 59.1%.

With `CCCCC1=NN(C(N)=O)C(O)(C(F)(F)F)C1` (centres undefined), the figures for the Activity in [11] and in data set [12] were 46% and -22.3%, respectively.

`CC(C)C1=NN(C(N)=O)C(O)(C(F)(F)F)C1` (centres undefined): the result in [13] was Active. Moreover, the values for the Activity result in data set [10], in data set [11] and in data set [12] were “Non-toxic”, 51.9% and 67%, respectively.

In the case of `CCCC1=NN(C(N)=O)C(O)(C(F)(F)F)C1` (centres undefined), the Activity was found to be 48.2% in data set [11] and 70.1% in data set [12]. Besides, the result in data set [14] was Active. Further, the outcome in data set [15] was inactive.

Regarding `Cc1c(N(C)CS(=O)(=O)[O-])c(=O)n(-c2ccccc2)n1C.[Na+]` [DIPYRONE SODIUM], the outcome in data set [16] and in data set [7] was Active. Besides, the Activity in [9] is listed as 87.7.

Consider `NC(=O)c1ccccc1O` [SALICYLAMIDE], for which the Activity in data set [17] stood at 102.1. For the same compound, the result in data set [7] was inactive.
